Source: patent US7973071B2, “Substituted gamma lactams as therapeutic agents” (Allergan, Inc., priority 2005, dated 2011)

Legend:
EP4 receptors = target: T1, EP4 receptors (Homo sapiens, UniProt P35408); test: Radioligand binding vs [3H]PGE2, EP4
T1 construct: expressed in transfected cells; host or cells: HEK-293
Experimental: HEK-293 cells stably expressing the human or feline FP receptor, or EP1, EP2, or EP4 receptors were washed with TME buffer, scraped from the bottom of the flasks, and homogenized for 30 sec using a Brinkman PT 10/35 polytron. TME buffer was added to achieve a final 40 ml volume in the centrifuge tubes (the composition of TME is 100 mM TRIS base, 20 mM MgCl2, […]; 10N HCl is added to achieve a pH of 7.4).
The cell homogenate was centrifuged at 19000 r.p.m. for 20 min at 4° C. using a Beckman Ti-60 rotor. The resultant pellet was resuspended in TME buffer to give a final 1 mg/ml protein concentration, as determined by Biorad assay. Radioligand binding competition assays vs. [^3H-]17 phenyl PGF2α, (5 nM) were performed in a 1001μvolume for 60 min. Binding reactions were started by adding plasma membrane fraction. The reaction was terminated by the addition of 4 ml ice-cold TRIS-HCl buffer and rapid filtration through glass fiber GF/B filters using a Brandel cell harvester. The filters were washed 3 times with ice-cold buffer and oven dried for one hour.
[^3H-] PGE2 (specific activity 180 Ci mmol) was used as the radioligand for EP receptors. [^3H] 17-phenyl PGF2α was employed for FP receptor binding studies. […] 17-phenyl PGF2α and non-specific binding determined with 10^−5M of unlabeled PGE2, or 17-phenyl PGF2α, according to receptor subtype studied.

EP2 [1] = target: T2, EP2 (Homo sapiens, UniProt P43116); test: EP2 cAMP assay; assay type: cell-based
T2 sequence (P43116 whole entry): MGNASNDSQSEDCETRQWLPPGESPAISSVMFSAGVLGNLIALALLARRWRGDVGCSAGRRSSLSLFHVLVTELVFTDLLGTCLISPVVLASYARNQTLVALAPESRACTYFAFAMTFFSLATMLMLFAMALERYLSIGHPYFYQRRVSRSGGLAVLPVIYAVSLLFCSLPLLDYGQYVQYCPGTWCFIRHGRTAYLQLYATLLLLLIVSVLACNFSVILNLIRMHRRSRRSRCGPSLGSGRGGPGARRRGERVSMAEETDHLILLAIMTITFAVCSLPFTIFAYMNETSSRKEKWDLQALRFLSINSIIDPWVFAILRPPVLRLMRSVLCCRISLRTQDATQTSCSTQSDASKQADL

hEP3A/Gqi5 = target: T3, hEP3A/Gqi5 (Homo sapiens, UniProt P43115); test: FLIPR calcium signal study, EP3A; assay type: cell-based; settings: read-out: Other Receptors hEP3A EC50
T3 construct: expressed in transfected cells; host or cells: HEK-293(EBNA)
T3 sequence (P43115 1-390): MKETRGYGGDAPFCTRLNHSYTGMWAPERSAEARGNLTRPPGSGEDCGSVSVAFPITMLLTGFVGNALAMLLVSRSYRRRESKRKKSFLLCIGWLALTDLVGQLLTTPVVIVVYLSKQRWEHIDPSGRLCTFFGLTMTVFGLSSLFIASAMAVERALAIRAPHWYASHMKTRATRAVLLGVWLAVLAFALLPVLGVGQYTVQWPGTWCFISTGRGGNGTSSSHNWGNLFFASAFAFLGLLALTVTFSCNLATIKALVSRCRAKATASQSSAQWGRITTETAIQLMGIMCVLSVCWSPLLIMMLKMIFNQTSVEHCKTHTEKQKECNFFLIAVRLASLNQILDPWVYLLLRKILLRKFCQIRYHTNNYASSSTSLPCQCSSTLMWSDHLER
Experimental: HEK-293(EBNA) cells, stably expressing one type or subtype of recombinant human prostaglandin receptors (prostaglandin receptors expressed: hDP/Gqs5; hEP1; hEP2/Gqs5; hEP3A/Gqi5; hEP4/Gqs5; hFP; hIP; hTP), were cultured in 100 mm culture dishes in high-glucose DMEM medium containing 10% fetal bovine serum, 2 mM 1-glutamine, 250 μg/ml geneticin (G418) and 200 μg/ml hygromycin B as selection markers, and 100 units/ml penicillin G, 100 μg/ml streptomycin and 0.25 μg/ml amphotericin B.
Cells were seeded at a density of 5×10^4 cells per well in Biocoat® Poly-D-lysine-coated black-wall, clear-bottom 96-well plates (Becton-Dickinson) and allowed to attach overnight in an incubator at 37° C. Cells were then washed two times with HBSS-HEPES buffer (Hanks Balanced Salt Solution without bicarbonate and phenol red, 20 mM HEPES, pH 7.4) using a Denley Cellwash plate washer (Labsystems). […]
Cells were excited with an Argon laser at 488 nm, and emission was measured through a 510-570 nm bandwidth emission filter (FLIPR™, Molecular Devices, Sunnyvale, Calif.). […] The peak increase in fluorescence intensity was recorded for each well. […] The peak fluorescence change in each drug-containing well was then expressed relative to the controls. […]

EP2 [2] = target: T2, EP2; test: Competition binding vs [3H]PGE2, EP2; parameters: expressed in transfected cells; host or cells: HEK 293; settings: HEK 293 cells stably expressing human EP2
Experimental: Competition binding experiments were performed in a medium containing Hank's balanced salt solution, Hepes 20 mM, pH 7.3, membranes (˜60 μg protein) or 2×10^5 cells from HEK 293 cells stably expressing human EP2 receptors, [^3H]PGE2 (10 nM) and various concentrations of test compounds in a total volume of 300 μl. Reaction mixtures were incubated at 23° C. for 60 min, and were filtered over Whatman GF/B filters under vacuum. Filters were washed three times with 5 ml ice-cold buffer containing 50 mM Tris/HCl (pH 7.3). Non-specific binding was estimated in the presence of excess unlabeled PGE2 (10 μM). Binding data fitted to the binding model for a single class of binding sites, using nonlinear regression analysis. IC50 values thus obtained were converted to Ki using the equation of Ki=(IC50/(1+[L]/KD) where [L] represents PGE2 concentration (10 nM) and KD the dissociation constant for [^3H]PGE2 at human EP2 receptors (40 nM). […]
The cell homogenate was centrifuged at 19000 r.p.m. for 20 min at 4° C. using a Beckman Ti-60 rotor. The resultant pellet was resuspended in TME buffer to give a final 1 mg/ml protein concentration, as determined by Biorad assay. […]
[^3H-] […] 17-phenyl PGF2α and non-specific binding determined with 10^−5M of unlabeled PGE2, or 17-phenyl PGF2α, according to receptor subtype studied.

T1 sequence (P35408 whole entry): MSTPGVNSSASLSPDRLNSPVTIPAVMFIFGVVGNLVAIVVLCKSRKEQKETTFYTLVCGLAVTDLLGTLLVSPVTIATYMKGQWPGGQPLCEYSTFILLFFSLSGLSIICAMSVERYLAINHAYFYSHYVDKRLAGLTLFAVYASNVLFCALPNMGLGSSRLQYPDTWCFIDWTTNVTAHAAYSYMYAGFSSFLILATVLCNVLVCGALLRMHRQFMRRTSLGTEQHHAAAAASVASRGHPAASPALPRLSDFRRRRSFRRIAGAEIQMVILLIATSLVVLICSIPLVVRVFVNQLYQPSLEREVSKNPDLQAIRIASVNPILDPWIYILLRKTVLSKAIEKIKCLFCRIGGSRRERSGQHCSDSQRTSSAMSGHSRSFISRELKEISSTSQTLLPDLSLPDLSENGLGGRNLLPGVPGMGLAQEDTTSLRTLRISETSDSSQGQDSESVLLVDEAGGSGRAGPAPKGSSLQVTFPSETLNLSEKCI

Ki (EP4 receptors) [nM] | EC50 (EP2 [1]) [nM] | EC50 (hEP3A/Gqi5) [nM] | Ki (EP2 [2]) [nM] | Compound
3840 |  |  |  | CCCCCCC(O)c1ccc(N2C(=O)CC[C@@H]2COCc2ccc(C(=O)O)s2)cc1 (single isomer, unassigned) [Example 34]
 | 3 | 403 |  | CCCCCC(O)c1ccc(N2C(=O)CC[C@@H]2COCc2ccc(C(=O)O)s2)cc1 (stereo partly drawn) [Example 9, 5-{(R)-1-[4-(1-Hydroxy-hexyl)-phenyl]-5-oxo-pyrrolidin-2-ylmethoxymethyl}-thiophene-2-carboxylic acid]
 |  | 519 |  | CCCCCCC(O)c1ccc(N2C(=O)CC[C@@H]2COCc2ccc(C(=O)O)s2)cc1 (stereo partly drawn) [Example 13, 5-{(R)-1-[4-(1-Hydroxy-heptyl)-phenyl]-5-oxo-pyrrolidin-2-ylmethoxymethyl}-thiophene-2-carboxylic acid]
 | 0.9 |  | 10 | CCCCCCC(O)c1ccc(N2C(=O)CC[C@@H]2CCCc2ccc(C(=O)O)s2)cc1 (stereo partly drawn) [Example 36, 5-(3-{(S)-1-[4-(1-Hydroxy-heptyl)-phenyl]-5-oxo-pyrrolidin-2-yl}-propyl)-thiophene-2-carboxylic acid]
